Measured values taken from ChEMBL document CHEMBL2321774, “The C-terminus of Botulinum A Protease Has Profound and Unanticipated Kinetic Consequences Upon the Catalytic Cleft” (ACS Med Chem Lett, 2013).

Target: Botulinum neurotoxin type A (Clostridium botulinum, UniProt P0DPI0)
Sequence (P0DPI0 2-448 limits assumed): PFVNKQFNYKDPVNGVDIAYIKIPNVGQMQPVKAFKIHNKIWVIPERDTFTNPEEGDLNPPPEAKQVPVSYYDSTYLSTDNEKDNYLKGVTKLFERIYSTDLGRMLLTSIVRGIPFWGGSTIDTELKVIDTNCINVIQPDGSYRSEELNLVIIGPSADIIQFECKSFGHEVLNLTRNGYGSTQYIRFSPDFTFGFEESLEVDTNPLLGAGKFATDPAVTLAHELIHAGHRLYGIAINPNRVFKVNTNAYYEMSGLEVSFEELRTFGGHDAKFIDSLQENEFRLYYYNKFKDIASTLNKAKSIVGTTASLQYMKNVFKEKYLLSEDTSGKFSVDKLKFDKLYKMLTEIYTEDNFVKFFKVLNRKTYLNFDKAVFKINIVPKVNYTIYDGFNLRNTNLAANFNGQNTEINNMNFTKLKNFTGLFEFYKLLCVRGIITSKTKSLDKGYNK

With COC(=O)c1ccc(O)c2nc3c(C=O)c(O)cc(O)c3nc12 [LOMOFUNGIN] the Ki was 25 µM.
